Measured values taken from patent publication US20160375155A1, “Collagen Imaging Compositions” (Collagen Medical, LLC, priority 2015, published 2016).
Where two headings read alike, the source gives them in different places.

What was measured:
[1] = Pharmacokinetics (rat), plasma gadolinium by ICP-MS; type: in vivo, Sprague Dawley rats; conditions: 1.3 umol/kg iv bolus in 80 mM sucrose, pH 7, 2-90 minutes
Description: Compound ID No. 1 was formulated at pH 7 in 80 mM sucrose and administered to Sprague Dawley rats (n=2) at dose of 1.3 umol/kg using a bolus IV injection. Plasma was sampled at 2, 5, 15, 30, and 90 minutes post-injection and analyzed for gadolinium content using ICP-MS (FIG. 15).

[2] = molecular target: Native canine Collagen Type I and III protein; test: Collagen binding assay, dried dog collagen plate; conditions: 37° C., pH 7.4; collagen 5 μM; fit to 1 binding site
Description: Canine collagen (Native canine Collagen Type I and III protein, YO protein AB, cat#739) is dissolved in 0.5 M acetic acid at 3.3 mg/ml by vortexing and shaking overnight at 4° C. The solution is then dialyzed against 10 mM Phosphate (NaH2PO4), pH 4.2 at 4° C. with three changes of the dialysis buffer.
Ice-cold 1×PBS pH 10.8 is added to the collagen solution for a final collagen concentration of 10 μM, pH 7.4. Collagen solutions are gelled and dried down in the wells of a 96 well microtiter plate (Corning Polystyrene Flat Bottom, cat#3641). 70 μl of 10 μM collagen is aliquoted into each well in every other lane in the plate (48 wells) and the plate is incubated at 37° C. for 18 hours to form a gel and evaporate to dryness. Ungelled collagen is removed by washing the collagen films with 200 μl 1×PBS pH 7.4 (four times, 15 min per wash). The thin collagen fibril film remains, coating the bottom of each well. After washing by PBS the plate is again dried at 37° C. for 2 hours and is stored at −20° C. The final well content of gelled collagen is measured by determination of hydroxyproline and is around 180 μg/ml.
a serial dilution of 0.2 μM-30 μM of the peptide chelate is prepared in PBS, pH 7.4 (˜300 μL of solution for each concentration). 90 μl of each concentration is also reserved in a HPLC glass vial as a sample to measure the total concentration. 140 μL of each dilution of peptide chelate is added to wells containing and non-containing collagen (control for nonspecific plastic binging). The plate is then incubated on a shaker table (300 rpm) for 2 hours at room temperature to allow the compound to bind. […] The concentration of free, unbound compound in the sample supernatants and the concentration of compound in the reserved (total) sample are determined by ICP-MS (Agilent 7500, gadolinium concentration). The concentration of compound bound to collagen is determined as [bound]=[total]−[unbound].
The binding of compounds to human, rat and dog collagen (5 μM) was measured over the concentration range 0.2-5 μM of Comp ID Nos.: 1-4. […]

[3] = Relaxivity in PBS (Bruker mq60, 60 MHz); type: physicochemical; conditions: pH 7.4 PBS at 1.4 T, 37° C.
Description: The relaxivity of Compound ID Nos. 1, 2 and 4 were determined in PBS at 37° C. using a Bruker mq60 spectrometer operating at 60 MHz (1.4 tesla). Samples were equilibrated at concentrations ranging from 0-200 μM for at least 30 minutes at 37° C. T1 was measured using an inversion recovery sequence. Relaxivities were calculated by subtracting the relaxation rate of the buffer […] and then dividing the result by the concentration of Compound.

myocardial collagen = conditions: rat MI model, healthy and infarcted heart
Description: Myocardial infarction was induced in Sprague Dawley rats by occlusion of the left anterior descending coronary artery followed by reperfusion. The rats were anesthetized with an intraperitoneal (i.p.) injection of 100 μg pentobarbital sodium per gram body weight and a thorocotamy was performed. The pericardium was removed and the left anterior artery was sutured with a 7.0 silk suture for 60 minutes after which reperfusion was established.
Animals were sacrificed at 60 minutes post-injection and the heart removed and sectioned for analysis.
The slope for this correlation is a measure of efficacy.

[4] = system: acute and chronic myocardial infarct (fibrosis); type: in vivo, canine; conditions: for CNR between infarct and blood: Compound ID No. 1 0.0075 mmol/kg, extracellular gadolinium 0.2 mmol/kg
Text: An experimental protocol was developed to test the ability of Compound ID No. 1 to differentiate acute from chronic myocardial infarction in an in-vivo large animal (canine) model. In this model, early following acute myocardial infarction, pathologic fibrosis has not fully developed within the infarct zone (fibrosis-poor), whereas in chronic MI (˜8 weeks following MI), dense fibrosis fully replaced necrotic myocardium (fibrosis-rich).
In the myocardial fibrosis canine model, a vascular occluder was placed surgically around the left anterior descending coronary artery (LAD) to allow occlusion and reperfusion. Two animals were studied following acute MI and two additional animals were studied both following acute MI, and chronically at 8 weeks. The LAD vessel was completely occluded for 70-90 minutes and then released to allow reperfusion. The chest was sutured closed, and the animal was allowed to recover. Imaging was performed on a 3 T clinical scanner in an acute (<1 week, minimal fibrosis expected in acute necrosis) and chronic (8 weeks, healing complete, necrotic myocardium replaced by dense collagenous scar) time point after infarction. For each time point, the animals undergo 2 scans separated by 48 hours with conventional gadolinium contrast (0.2 mmol/kg GdDTPA) and Compound ID No. 1 (0.0075 mmol/kg).
Imaging was performed on a 3 T clinical scanner (Siemens Verio). Breath holding was achieved by temporarily turning off the animal ventilator, and all images were ECG gated. Standard short and long axis cine imaging was performed throughout the left ventricle to identify left ventricular function and regional wall motion abnormalities. Delayed enhancement imaging (segmented 2D inversion recovery gradient echo) was performed prior to and serially following Compound ID No. 1 administration. Two strategies were employed: (1) a fixed inversion time was chosen to null pre-contrast myocardium (TI˜650 ms), and (2) a variable inversion time set to null post-contrast myocardium as is performed in traditional delayed enhancement imaging.
After imaging, animals were euthanized and post mortem analysis of myocardium was performed. Tissue was assessed grossly by histopathologic staining with triphenyltetrazolium chloride for myocardial infarction, and microscopically with Masson's trichrome staining for fibrosis. Additionally quantitative tissue analysis for hydroxyproline was used to measure total collagen content in tissue and compared to tissue gadolinium concentration by inductively coupled plasma-mass spectrometry. MR data was analyzed quantitatively for conspicuity of infarction and image quality as well as contrast to noise ratio (CNR) for infarct-normal myocardium and infarct-blood.

SMILES: CC(C)C[C@H](NC(=O)[C@@H]1CSSC[C@H](NC(=O)[C@H](Cc2c[nH]cn2)NC(=O)[C@H](Cc2c[nH]c3ccccc23)NC(=O)[C@H](CCCCNC(=O)CC[C@H](C(=O)O)N2CCN(CC(=O)O)CCN(CC(=O)O)CCN(CC(=O)O)CC2)NC(=O)CNC(=O)CC[C@H](C(=O)O)N2CCN(CC(=O)O)CCN(CC(=O)O)CCN(CC(=O)O)CC2)C(=O)N[C@@H]([C@@H](C)O)C(=O)N[C@@H]([C@@H](C)O)C(=O)N[C@@H](CCCCNC(=O)CC[C@H](C(=O)O)N2CCN(CC(=O)O)CCN(CC(=O)O)CCN(CC(=O)O)CC2)C(=O)N[C@@H](Cc2ccccc2)C(=O)N2CCC[C@H]2C(=O)N[C@@H](Cc2c[nH]cn2)C(=O)N[C@@H](Cc2c[nH]cn2)C(=O)N[C@@H](Cc2ccc(O)cc2)C(=O)N1)C(=O)N[C@@H](Cc1ccc(O)cc1)C(=O)N[C@@H](Cc1ccc(-c2ccccc2)cc1)C(N)=O [Compound ID No. 1]
- pharmacokinetic profile (plasma gadolinium) [1]: rapid initial blood clearance
- Kd [2]: 4.4 µM
- R1 (relaxivity) [3]: 43.4 mM⁻¹ s⁻¹
- calculated slope, hydroxyproline vs. gadolinium concentration (myocardial collagen): 8498
- CNR between infarct and blood ([4]; acute MI): 19±7.4
- T1 of infarct vs normal myocardium ([4]; acute myocardial infarction, FIG. 24a): longer than normal (N1) myocardium
- MR image enhancement of infarct over time ([4]; acute myocardial infarction, FIG. 25a): lack of contrast early, equilibration with normal myocardium at 30 minutes, and enhancement >1 hr
- relationship of compound concentration (gadolinium) vs. collagen concentration (hydroxyproline) ([4]; canine heart tissue, FIG. 26): linear relationship
- CNR between infarct and blood ([4]; chronic MI (8 weeks)): 11±2
- extent of the enhanced area ([4]; chronic infarct, compared with Gd delayed enhancement): matched that of Gd delayed enhancement
- T1 of infarct vs normal myocardium ([4]; chronic myocardial infarction, FIG. 24b): lower T1 than normal myocardium throughout the entire experiment
- T1 of infarct vs normal myocardium ([4]; chronic myocardial infarction, FIG. 24b, listed as Compound ID. No. 1): early and persistent lowering of T1 values
